Experiments:
[1] = target: T1, YKL-40 (Homo sapiens (Human), UniProt P36222); test: Bio-layer interferometry (BLITz) Kd of biotinylated compounds; format: binding; conditions: symbol preceded by asterisk; biotinylated compound on streptavidin biosensor; read-out: YKL-40:4, Kd
Experimental: BLITz system (Sartorius) that used Bio-layer interferometry technology was applied to assess Kd of biotinylated compounds. […] During dehydration process the 10 mM stock of biotinylated compound in DMSO was diluted in MST buffer to final concentration of 0.5 μM. In addition, protein stock of recombinant YKL40 (un-tagged, purified in-house) was also prepared in MST buffer at two concentrations: 200 μM and 400 μM. The dehydrated biosensor was applied on the BLITz system that was followed by 5-step procedure: 1) initial baseline for 30 s with MST buffer in tube, 2) loading of 4 μl of biotinylated compound on drop, 3) baseline for 30 s with MST buffer in tube, 4) association of 4 μl of protein stock at one concentration or MST buffer (negative control), 5) dissociation with MST buffer in tube. The same multi-step measurement was done twice for each protein stock concentration and once for negative control. Kd was measured by the BLITz software based on global fitting using the negative control as a reference.

[2] = target: T1, YKL-40; test: YKL-40:4 assay, competitive chitin binding site AlphaScreen; conditions: competition with biotinylated compound 4 (20 nM), YKL-40-histag 2.5 nM
[3] = target: YKL-40: heparan sulfate interaction (Homo sapiens (Human), UniProt P36222); test: YKL-40:HS assay, heparan sulfate interference AlphaScreen; format: binding; conditions: competition with biotinylated heparan sulphate (60 nM)
Chain of YKL-40: heparan sulfate interaction (P36222 22-383): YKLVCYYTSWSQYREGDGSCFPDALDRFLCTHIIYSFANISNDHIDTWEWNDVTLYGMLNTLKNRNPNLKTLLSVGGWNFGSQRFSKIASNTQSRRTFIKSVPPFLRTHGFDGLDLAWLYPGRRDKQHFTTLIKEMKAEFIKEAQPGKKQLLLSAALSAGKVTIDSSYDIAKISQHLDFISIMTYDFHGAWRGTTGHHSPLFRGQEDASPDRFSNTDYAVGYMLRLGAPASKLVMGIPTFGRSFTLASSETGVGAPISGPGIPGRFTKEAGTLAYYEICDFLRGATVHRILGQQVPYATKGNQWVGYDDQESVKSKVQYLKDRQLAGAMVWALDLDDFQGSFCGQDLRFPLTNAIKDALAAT
Experimental: In the similar way to establishing YKL-40 chitin binding site competitive AlphaScreen assay (section 3), the YKL-40 AlphaScreen assay using biotinylated 9 kDa heparan sulfate fraction III was established, including the same buffer conditions (50 mM Tris HCl pH 7.4, 150 mM NaCl, 10 mM MgCl2, 0.05% Tween 20, 1 mg/mL BSA 1% DMSO). […] Next, biotinylated heparan sulfate fraction III custom-ordered from Iduron was cross-titrated with histagged YKL-40 using AlphaScreen assay described above.
Positive and negative control wells received just 8 uL of MST buffer containing 2% DMSO without inhibitor in the 2nd step (ii). In addition, negative control received just 8 uL of MST buffer containing 0% DMSO without YKL-40-histag in the 3nd step (iii). Finally, the plate luminescence was excited at 680 nm and the emission read at 520-620 nm using the AlphaScreen module in the The Spark™ 10 M multimode microplate reader (Tecan Trading AG, Männedorf, Switzerland). Inhibition percentage and IC50 values were determined using GraphPad Prism 7.0 software (GraphPad Software, San Diego, Calif., USA).

T1 sequence (P36222 22-383): as above

Row | Compound | Kd [1] | IC50 [2] | IC50 [3]
1 | O=C(CCCC[C@@H]1SC[C@@H]2NC(=O)N[C@@H]21)NCCOCCOCCOCCOCCOCCOCCOCCOCCOCCOCCOCCOCCC(=O)NC[C@H]1CN(C2CCN(c3ccccn3)CC2)[C@@H](Cc2ccc(Cl)cc2)CO1 [Example 5, N-(((2S,5S)-5-(4-chlorobenzyl)-4-(1-(pyridin-2-yl)piperidin-4-yl)morpholin-2-yl)methyl)-1-(5-((3aS,4S,6aR)-2-oxohexahydro-1H-thieno[3,4-d]imidazol-4-yl)pentanamido)-3,6,9,12,15,18,21,24,27,30,33,36-dodecaoxanonatriacontan-39-amide] | < 100 nM | – | –
2 | CNC(=O)CN1C[C@H](Cc2ccc(Cl)cc2)N(C2CCN(c3ccccn3)CC2)C[C@@H]1CC(C)C [compound 95, 2-((2S,5S)-5-(4-chlorobenzyl)-2-isobutyl-4-(1-(pyridin-2-yl)piperidin-4-yl)piperazin-1-yl)-N-methylacetamide 2,2,2-trifluoroacetate] | – | < 100 nM | < 100 nM
3 | CNC(=O)CN1C[C@H](Cc2ccc(Cl)cc2)N(C2CCN(c3ccccn3)CC2)C[C@@H]1C(C)C [compound 106, 2-((2S,5S)-5-(4-chlorobenzyl)-2-isopropyl-4-(1-(pyridin-2-yl)piperidin-4-yl)piperazin-1-yl)-N-methylacetamide 2,2,2-trifluoroacetate] | – | < 100 nM | < 100 nM
4 | Cc1ccnc(N2CCC(N3C[C@H](C)OC[C@@H]3Cc3ccc(Cl)cc3)CC2)c1F [compound 112, (2S,5S)-5-(4-chlorobenzyl)-4-(1-(3-fluoro-4-methylpyridin-2-yl)piperidin-4-yl)-2-methylmorpholine 2,2,2-trifluoroacetate] | – | 100 to 1000 nM | < 100 nM
5 | Cc1nc(N2CCC(N3C[C@H](C)OC[C@@H]3Cc3ccc(Cl)cc3)CC2)sc1C [compound 183, (2S,5S)-5-(4-chlorobenzyl)-4-(1-(4,5-dimethylthiazol-2-yl)piperidin-4-yl)-2-methylmorpholine 2,2,2-trifluoroacetate] | – | < 100 nM | < 100 nM
6 | Cc1cnc(N2CCC(N3C[C@H](C)OC[C@@H]3Cc3ccc(Cl)cc3)CC2)s1 [compound 185, (2S,5S)-5-(4-chlorobenzyl)-2-methyl-4-(1-(5-methylthiazol-2-yl)piperidin-4-yl)morpholine 2,2,2-trifluoroacetate] | – | < 100 nM | 100 to 1000 nM
